ChEMBL document CHEMBL1201862, “PubChem BioAssay data set” (2004)
Active and inactive are the calls of the source.

What was measured:
BJ [1] = assay: cytotoxicity toward Ras-transformed BJeLR fibroblasts, dose response, cell-based, alamar blue fluorescence, cherrypicked samples (AID 2631); type: functional; settings: Homo sapiens;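 further: confirmatory dose-response assay in RAS-dependent BJ fibroblasts engineered with TERT, LT and ST, with cytotoxicity read by fluorescence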
[2] = cytotoxicity toward DRD oncogenic fibroblasts, dose response, cell-based, non-viral oncogenic, luminescence (AID 1934); type: functional; settings: Homo sapiens
BJ [3] = assay: cytotoxicity toward BJ-TERT-LT-ST fibroblasts, dose response, cell-based, RAS-independent, luminescence (AID 1935); type: functional; settings: Homo sapiens;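 further: BJ fibroblasts immortalized with TERT plus LT and ST oncogenes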
Paired box protein Pax-8 = Paired box protein Pax-8 (Homo sapiens, UniProt Q06710); assay: inhibitors of PAX8-driven TPO luciferase reporter, dose response, RMG-I cells, cherry-pick (AID 687027); type: functional, cell-based;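 further: luciferase reporter driven by Pax8 target thyroperoxidase promoter measured by SteadyGlo luminescence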
Protein RecA = biological target: T1, Protein RecA (Mycobacterium tuberculosis, UniProt P9WHJ3); assay: Fluorescence Cell-Free Homogeneous Dose Retest to Identify Inhibitors of RecA-Intein Splicing Activity. [Related pubchem assays (depositor defined):AID2097, AID2223, AID489010, AID492950]; type: functional
T1 sequence (P9WHJ3 whole entry): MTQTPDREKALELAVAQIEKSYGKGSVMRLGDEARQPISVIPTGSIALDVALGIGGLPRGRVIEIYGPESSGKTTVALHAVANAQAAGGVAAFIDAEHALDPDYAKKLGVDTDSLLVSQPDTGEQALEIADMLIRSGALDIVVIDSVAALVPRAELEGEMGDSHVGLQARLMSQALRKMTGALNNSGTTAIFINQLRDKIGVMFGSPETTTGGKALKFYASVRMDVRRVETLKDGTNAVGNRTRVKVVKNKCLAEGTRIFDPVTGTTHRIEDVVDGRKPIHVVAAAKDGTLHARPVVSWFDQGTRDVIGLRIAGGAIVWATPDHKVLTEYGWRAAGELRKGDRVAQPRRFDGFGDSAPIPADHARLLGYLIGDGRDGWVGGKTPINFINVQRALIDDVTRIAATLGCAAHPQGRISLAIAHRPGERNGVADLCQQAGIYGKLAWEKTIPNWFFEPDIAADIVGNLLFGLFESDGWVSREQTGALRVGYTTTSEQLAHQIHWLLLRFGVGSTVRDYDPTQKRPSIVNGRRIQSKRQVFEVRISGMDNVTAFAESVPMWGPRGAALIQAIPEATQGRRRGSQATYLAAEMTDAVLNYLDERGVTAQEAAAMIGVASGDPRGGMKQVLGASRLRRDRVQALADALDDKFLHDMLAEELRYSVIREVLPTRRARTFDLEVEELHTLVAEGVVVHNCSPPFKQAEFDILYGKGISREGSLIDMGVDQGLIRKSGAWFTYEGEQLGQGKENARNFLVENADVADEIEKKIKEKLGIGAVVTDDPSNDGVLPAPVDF

[4] = Intein inhibitors as potential Tuberculosis drugs, a cytotoxicity screen. [Related pubchem assays (depositor defined):AID2221, AID2223, AID434968, AID435010, AID449749, AID449750, AID489010]; type: functional
[5] = growth suppression of PTEN-null colon cells, dose response, cell-based, HCT116 PTEN knockout (AID 1047); type: functional;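 further: HCT116 colon tumor cells with PTEN knocked out; cells exposed to compound for 60 hours before readout; potency for loss of cell viability measured by luminescence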
BJ [6] = assay: cytotoxicity toward BJ-TERT fibroblasts, dose response, cell-based, RAS-independent, luminescence (AID 1933); type: functional; settings: Homo sapiens
BJ [7] = assay: cells; type: functional, cell-based; settings: Homo sapiens
[8] = biological target: T2, Replicative DNA helicase DnaB (Mycobacterium tuberculosis, UniProt P9WMR3); assay: DnaB intein splicing inhibitors, dose response, biochemical, cell-free fluorescence (AID 449749); type: functional
T2 sequence (P9WMR3 whole entry): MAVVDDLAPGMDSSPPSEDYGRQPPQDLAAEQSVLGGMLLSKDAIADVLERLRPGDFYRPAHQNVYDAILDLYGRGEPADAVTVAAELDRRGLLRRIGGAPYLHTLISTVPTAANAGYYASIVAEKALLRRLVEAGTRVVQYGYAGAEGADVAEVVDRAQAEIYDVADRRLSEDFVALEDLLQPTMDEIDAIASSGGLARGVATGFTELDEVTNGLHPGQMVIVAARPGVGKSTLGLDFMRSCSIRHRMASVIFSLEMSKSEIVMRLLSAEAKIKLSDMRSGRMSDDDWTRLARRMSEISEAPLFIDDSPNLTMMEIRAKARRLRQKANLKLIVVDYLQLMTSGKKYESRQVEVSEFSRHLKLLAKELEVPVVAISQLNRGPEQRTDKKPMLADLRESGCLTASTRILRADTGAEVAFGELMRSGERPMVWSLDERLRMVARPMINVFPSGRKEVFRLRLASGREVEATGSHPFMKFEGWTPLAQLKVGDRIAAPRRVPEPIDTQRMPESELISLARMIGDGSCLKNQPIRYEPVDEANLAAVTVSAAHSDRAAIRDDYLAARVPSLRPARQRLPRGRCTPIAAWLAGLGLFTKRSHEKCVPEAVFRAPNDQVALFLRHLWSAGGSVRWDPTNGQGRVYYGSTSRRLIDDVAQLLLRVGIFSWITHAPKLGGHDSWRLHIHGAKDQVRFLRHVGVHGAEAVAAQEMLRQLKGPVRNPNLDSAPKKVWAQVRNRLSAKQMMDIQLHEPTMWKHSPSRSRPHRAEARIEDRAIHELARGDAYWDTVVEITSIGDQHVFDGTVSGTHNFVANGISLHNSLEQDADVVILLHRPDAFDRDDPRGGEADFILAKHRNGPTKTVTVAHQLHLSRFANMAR

[9] = non-specific cell cytotoxicity, dose response, cytotoxicity control for PAX8 inhibitor project, plate reader, dry powder samples (AID 743021); type: functional, cell-based
[10] = growth suppression of beta-catenin-knockout colon cells, dose response, cell-based, HCT116, human colon tumor (AID 1045); type: functional;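 further: HCT116 colon tumor cells with beta catenin knocked out; cells exposed to compound for 60 hours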
[11] = biological target: T3, Voltage-gated N-type calcium channel alpha-1B subunit/Amyloid beta A4 precursor protein-binding family A member 1 (Homo sapiens, UniProt Q00975+Q02410); type: protein assay
[12] = biological target: T3, Voltage-gated N-type calcium channel alpha-1B subunit/Amyloid beta A4 precursor protein-binding family A member 1; type: protein assay; remark: listed apart in the source
[13] = biological target: T4, Kappa-type opioid receptor (Homo sapiens, UniProt P41145); assay: SAR analysis of small molecule antagonists of the kappa opioid receptor via a luminescent beta-arrestin assay - Set 3. [Related pubchem assays (depositor defined):AID1777, AID1778, AID1785, AID1786, AID1966, AID2133, AID2136, AID2285, AID2495]; type: functional
[14] = biological target: T4, Kappa-type opioid receptor; assay: SAR analysis of Antagonists of the Kappa Opioid Receptor (KOR) using an Image-Based Assay - Set 4. [Related pubchem assays (depositor defined):AID1777, AID1785]; type: functional
Mu-type opioid receptor = Mu-type opioid receptor (Homo sapiens, UniProt P35372); assay: SAR Analysis of Antagonists of the MOR Receptor using an Image-Based Assay - Set 3. [Related pubchem assays (depositor defined):AID1777, AID1785, AID1786, AID1966, AID2133, AID2136, AID2284, AID2285, AID2420]; type: functional
[15] = biological target: Delta-type opioid receptor (Homo sapiens, UniProt P41143); assay: SAR Analysis of Antagonists of the DOR Receptor using an Image-Based Assay - Set 3. [Related pubchem assays (depositor defined):AID1777, AID1785]; type: functional;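 further: U2OS cells expressing DOR1 and beta-arrestin GFP stimulated with 100 nM SNC80; imaging of GFP-tagged beta-arrestin moving into spots after receptor activation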
[16] = inhibitors of intracellular T. cruzi replication, confirmation, NIH3T3 host cells, beta-gal luminescence (AID 2044); type: functional, cell-based;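 further: intracellular parasites grown in NIH/3T3 mouse fibroblasts as host cells; luminescent beta-galactosidase reporter signal from transgenic T. cruzi replicating inside host cells; inhibitors lower the luminescence signal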
[17] = control 3'UTR Renilla luciferase suppression, dose response, counter-screen for Shn3 inhibitor project, cell-based, Clone20-Shn3RL, cherry-picked (AID 624133); type: functional
[18] = HepG2 cell cytotoxicity, dose response, cytotoxicity control for non-replicating M. tuberculosis project (AID 489018); type: functional; settings: Mycobacterium tuberculosis
[19] = cytotoxicity toward NIH3T3 fibroblasts, dose response, counter-screen, cell-based, ATP luminescence, mouse fibroblasts (AID 2010); type: functional;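 further: cells exposed to compound for about 90 hours before reading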
[20] = THP-1 cell cytotoxicity, dose response, cytotoxicity control for non-replicating M. tuberculosis project (AID 489025); type: functional
Ion channel NompC = Ion channel NompC (Danio rerio, UniProt Q7T1G6); assay: Dose response cell-based high-throughput screening assay for agonists of the transient receptor potential channel N1 (TRPN1). [Related pubchem assays (depositor defined):AID1424, AID1448]; type: functional
Mucolipin-3 = Mucolipin-3 (Homo sapiens, UniProt Q8TDD5); assay: Fluorescence counterscreen assay for […] agonists: dose response cell-based high-throughput screening assay to identify agonists of the transient receptor potential channel ML3 (TRPML3). [Related pubchem assays: 1424, 1448 ]; type: functional
[21] = biological target: Eukaryotic translation initiation factor 4E (Mus musculus, UniProt P63073); assay: eIF4E–eIF4G protein interaction inhibitors, dose response, biochemical, TR-FRET (AID 855); type: functional;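 further: potency for disrupting eIF4E binding to eIF4GI seen as loss of FRET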
[22] = Shn3 3'UTR reporter inhibitors, dose response, cell-based, Clone20 osteoblasts, firefly luciferase, cherry-picked (AID 624132); type: functional;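 further: firefly luciferase luminescence from reporter carrying the Shn3 3'UTR in osteoblasts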
[23] = HepG2 cell cytotoxicity, dose response, cytotoxicity control for Shn3 inhibitor project, CellTiter-Glo, cherry-picked (AID 624134); type: functional, cell-based
cells = type: functional
[24] = Vero E6 cell cytotoxicity, dose response, cytotoxicity control for non-replicating M. tuberculosis project, secondary assay (AID 492998); type: functional, VeroE6; settings: Vero C1008

T4 sequence (P41145 whole entry): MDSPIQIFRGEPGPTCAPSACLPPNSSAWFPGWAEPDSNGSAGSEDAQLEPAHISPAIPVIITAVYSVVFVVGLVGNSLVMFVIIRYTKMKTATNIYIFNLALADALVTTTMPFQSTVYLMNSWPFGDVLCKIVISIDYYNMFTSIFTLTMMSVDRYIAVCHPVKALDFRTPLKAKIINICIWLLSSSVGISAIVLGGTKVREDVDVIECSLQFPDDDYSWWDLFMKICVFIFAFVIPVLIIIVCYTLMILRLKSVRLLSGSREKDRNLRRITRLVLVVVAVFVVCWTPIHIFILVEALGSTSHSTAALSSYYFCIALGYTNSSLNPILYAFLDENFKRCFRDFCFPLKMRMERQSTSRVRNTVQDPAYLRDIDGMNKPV
T3 sequence (Q00975 whole entry): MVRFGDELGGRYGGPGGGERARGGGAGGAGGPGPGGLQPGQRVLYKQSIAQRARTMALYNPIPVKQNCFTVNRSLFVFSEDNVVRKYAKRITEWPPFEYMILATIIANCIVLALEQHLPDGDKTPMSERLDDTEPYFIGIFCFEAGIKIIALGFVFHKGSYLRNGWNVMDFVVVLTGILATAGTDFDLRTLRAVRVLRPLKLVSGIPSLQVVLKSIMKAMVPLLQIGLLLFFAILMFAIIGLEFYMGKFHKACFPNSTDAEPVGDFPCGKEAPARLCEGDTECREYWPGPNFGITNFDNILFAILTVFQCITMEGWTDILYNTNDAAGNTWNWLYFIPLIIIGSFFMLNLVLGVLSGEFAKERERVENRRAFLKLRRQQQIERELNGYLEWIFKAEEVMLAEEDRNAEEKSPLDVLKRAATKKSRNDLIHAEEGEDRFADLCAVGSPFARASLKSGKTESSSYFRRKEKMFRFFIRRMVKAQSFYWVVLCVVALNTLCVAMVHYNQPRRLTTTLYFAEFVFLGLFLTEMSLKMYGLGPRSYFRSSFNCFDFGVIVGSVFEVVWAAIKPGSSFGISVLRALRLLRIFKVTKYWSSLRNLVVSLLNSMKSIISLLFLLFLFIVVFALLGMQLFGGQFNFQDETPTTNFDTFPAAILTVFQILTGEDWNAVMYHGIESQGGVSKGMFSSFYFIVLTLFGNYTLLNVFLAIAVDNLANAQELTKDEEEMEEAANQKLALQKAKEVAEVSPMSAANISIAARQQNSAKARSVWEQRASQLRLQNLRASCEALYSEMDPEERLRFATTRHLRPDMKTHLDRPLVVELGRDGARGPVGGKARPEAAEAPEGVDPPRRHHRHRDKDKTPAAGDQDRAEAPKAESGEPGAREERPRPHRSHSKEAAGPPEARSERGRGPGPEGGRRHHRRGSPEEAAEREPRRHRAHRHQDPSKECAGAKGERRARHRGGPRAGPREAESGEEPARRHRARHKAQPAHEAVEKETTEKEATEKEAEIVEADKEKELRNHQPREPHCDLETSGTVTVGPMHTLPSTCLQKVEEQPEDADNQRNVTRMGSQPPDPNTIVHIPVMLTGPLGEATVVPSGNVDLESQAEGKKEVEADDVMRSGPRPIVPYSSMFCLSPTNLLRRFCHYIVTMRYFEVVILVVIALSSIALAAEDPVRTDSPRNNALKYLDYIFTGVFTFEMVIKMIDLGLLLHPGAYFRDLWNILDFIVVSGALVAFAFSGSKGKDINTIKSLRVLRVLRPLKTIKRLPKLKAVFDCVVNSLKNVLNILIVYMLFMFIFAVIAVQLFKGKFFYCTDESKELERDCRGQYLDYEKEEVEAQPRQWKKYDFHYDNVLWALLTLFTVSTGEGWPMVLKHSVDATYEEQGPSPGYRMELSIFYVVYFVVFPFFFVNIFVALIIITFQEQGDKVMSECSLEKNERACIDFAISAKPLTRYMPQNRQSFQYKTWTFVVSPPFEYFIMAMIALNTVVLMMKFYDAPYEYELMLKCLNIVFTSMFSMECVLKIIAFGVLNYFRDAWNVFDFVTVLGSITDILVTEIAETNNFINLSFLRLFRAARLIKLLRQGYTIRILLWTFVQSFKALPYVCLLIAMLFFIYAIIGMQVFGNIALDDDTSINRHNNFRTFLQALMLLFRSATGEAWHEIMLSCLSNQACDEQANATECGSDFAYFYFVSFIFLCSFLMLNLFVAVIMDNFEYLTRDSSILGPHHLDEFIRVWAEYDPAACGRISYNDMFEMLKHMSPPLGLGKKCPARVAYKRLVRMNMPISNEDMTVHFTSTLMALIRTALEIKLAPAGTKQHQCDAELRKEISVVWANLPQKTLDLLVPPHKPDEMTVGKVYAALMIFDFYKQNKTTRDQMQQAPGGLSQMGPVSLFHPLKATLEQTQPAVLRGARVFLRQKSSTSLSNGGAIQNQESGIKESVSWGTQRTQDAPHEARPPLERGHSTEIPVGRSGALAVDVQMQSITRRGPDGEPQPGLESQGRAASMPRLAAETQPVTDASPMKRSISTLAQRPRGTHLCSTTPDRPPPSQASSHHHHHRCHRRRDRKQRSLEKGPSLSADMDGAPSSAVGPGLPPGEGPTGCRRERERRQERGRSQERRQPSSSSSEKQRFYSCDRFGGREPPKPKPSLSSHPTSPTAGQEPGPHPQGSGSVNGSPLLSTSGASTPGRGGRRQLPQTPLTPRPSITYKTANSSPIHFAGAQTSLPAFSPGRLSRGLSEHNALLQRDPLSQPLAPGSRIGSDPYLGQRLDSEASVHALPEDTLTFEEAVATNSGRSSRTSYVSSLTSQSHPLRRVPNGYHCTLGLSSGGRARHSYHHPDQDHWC
T3 sequence (Q02410 whole entry): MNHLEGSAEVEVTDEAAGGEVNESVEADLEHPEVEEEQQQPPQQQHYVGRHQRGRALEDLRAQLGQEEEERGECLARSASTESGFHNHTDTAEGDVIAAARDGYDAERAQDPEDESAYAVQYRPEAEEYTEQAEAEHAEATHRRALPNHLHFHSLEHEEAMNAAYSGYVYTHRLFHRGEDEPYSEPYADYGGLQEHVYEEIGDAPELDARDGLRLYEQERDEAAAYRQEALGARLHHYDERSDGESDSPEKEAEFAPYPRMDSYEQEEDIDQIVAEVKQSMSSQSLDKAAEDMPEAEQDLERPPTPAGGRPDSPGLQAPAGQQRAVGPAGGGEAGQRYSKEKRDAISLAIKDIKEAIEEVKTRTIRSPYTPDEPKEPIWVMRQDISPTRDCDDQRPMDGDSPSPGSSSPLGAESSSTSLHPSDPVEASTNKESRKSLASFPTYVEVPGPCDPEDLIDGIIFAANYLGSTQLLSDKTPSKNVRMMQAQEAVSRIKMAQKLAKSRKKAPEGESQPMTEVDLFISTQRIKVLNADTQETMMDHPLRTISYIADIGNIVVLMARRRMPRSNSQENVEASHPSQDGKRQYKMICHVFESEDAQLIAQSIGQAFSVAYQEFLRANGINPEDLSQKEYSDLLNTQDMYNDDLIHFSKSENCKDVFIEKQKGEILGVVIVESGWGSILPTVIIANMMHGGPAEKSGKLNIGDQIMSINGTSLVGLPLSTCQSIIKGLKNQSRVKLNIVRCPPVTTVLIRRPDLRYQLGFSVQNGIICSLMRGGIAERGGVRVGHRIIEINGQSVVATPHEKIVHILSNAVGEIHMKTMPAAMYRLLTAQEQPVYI
Delta-type opioid receptor, sequence (P41143 whole entry): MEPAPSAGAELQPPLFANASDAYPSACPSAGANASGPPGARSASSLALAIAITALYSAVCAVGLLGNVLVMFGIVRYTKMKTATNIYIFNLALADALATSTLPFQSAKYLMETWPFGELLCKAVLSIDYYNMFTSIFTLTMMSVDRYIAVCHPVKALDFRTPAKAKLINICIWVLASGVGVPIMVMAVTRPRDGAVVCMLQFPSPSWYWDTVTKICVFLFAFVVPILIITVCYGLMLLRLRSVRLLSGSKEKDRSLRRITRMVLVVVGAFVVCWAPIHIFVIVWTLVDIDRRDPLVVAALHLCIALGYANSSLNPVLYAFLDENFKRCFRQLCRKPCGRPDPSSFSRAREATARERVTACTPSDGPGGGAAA
Eukaryotic translation initiation factor 4E, sequence (P63073 whole entry): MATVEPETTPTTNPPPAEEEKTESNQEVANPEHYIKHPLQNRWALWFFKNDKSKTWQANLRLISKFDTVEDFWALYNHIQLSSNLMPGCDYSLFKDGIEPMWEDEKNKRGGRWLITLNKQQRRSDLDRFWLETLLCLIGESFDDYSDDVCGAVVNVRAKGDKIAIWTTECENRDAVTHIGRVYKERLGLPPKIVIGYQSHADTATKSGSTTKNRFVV
Paired box protein Pax-8, sequence (Q06710 whole entry): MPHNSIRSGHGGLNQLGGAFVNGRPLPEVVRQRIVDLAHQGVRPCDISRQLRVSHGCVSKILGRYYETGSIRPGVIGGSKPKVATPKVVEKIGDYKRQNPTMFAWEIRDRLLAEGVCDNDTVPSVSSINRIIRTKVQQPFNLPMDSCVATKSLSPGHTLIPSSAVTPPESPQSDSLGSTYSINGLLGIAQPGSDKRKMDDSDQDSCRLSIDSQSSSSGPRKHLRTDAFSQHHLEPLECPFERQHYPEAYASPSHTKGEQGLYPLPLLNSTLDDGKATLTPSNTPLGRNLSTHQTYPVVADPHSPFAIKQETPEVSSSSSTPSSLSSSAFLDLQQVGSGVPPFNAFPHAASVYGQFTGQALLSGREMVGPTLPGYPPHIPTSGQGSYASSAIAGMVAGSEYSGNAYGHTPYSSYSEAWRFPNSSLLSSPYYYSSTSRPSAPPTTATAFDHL
Mu-type opioid receptor, sequence (P35372 whole entry): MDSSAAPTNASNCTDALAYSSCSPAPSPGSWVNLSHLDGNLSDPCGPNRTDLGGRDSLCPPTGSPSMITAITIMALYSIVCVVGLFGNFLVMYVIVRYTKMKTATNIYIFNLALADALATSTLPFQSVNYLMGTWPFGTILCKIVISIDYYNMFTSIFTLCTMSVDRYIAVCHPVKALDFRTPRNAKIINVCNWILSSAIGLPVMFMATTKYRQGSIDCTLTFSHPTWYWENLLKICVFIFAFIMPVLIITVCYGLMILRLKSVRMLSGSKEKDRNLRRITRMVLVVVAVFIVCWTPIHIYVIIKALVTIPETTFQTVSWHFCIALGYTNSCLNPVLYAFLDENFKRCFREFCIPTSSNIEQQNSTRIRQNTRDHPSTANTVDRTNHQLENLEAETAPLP

Structure (SMILES): COc1ccc(N(C(=O)CCl)C(C(=O)NCCc2ccccc2)c2cccs2)cc1 (centres undefined)
- EC50 (BJ [1]): 2.69 µM (active)
- EC50 [2]: 2.62 µM (active)
- EC50 (BJ [3]): 4.61 µM (active)
- AC50 (Paired box protein Pax-8): 2.44 µM (active)
- EC50 (Protein RecA): 0.327 µM (active)
- CC50 [4]: 0.43 µM (active)
- EC50 [5]: 1.1 µM (active)
- EC50 (BJ [6]): 1.22 µM (active)
- EC50 (BJ [7]): 2.97 µM (inconclusive)
- AC50 [8]: 2.64 µM (active)
- AC50 [9]: 4.64 µM (active)
- EC50 [10]: 0.986 µM (active)

Structure (SMILES): CC(=O)c1cccc(NC(=O)c2cc(-c3ccc(C)cc3)on2)c1
- IC50 [11]: > 50 µM (inactive)
- IC50 [12]: 15.5 µM (active)

Structure (SMILES): COc1ccc(N2CCN(CCCNC(=O)Cn3c(=O)c4cccn4c4cc(Br)cnc43)CC2)cc1
- IC50 [13]: 3.05 µM (active)
- IC50 [14]: 0.693 µM (active)
- IC50 (Mu-type opioid receptor): 10.3 µM (inactive)
- IC50 [15]: > 32 µM (inactive)

Structure (SMILES): Cc1cc(N2CCCCC2)nc(NCc2ccccc2)n1
- EC50 [16]: 2.04 µM (active)
- EC50 [2]: 25.9 µM (active)
- AC50 [17]: 6.27 µM (active)
- EC50 (BJ [3]): > 75 µM (inconclusive)
- CC50 [18]: > 20 µM (active)
- EC50 [19]: > 60 µM (not active)
- CC50 [20]: 8.56 µM (active)
- EC50 (Ion channel NompC): > 3.32 µM (inactive)
- EC50 (Mucolipin-3): > 3.32 µM (active)
- IC50 [21]: > 64 µM (inactive)
- AC50 [22]: 4.01 µM (active)
- EC50 (BJ [6]): 17.4 µM (active)
- AC50 [23]: 54.8 µM (active)
- EC50 (BJ [7]): 21.4 µM (active)
- IC50 (cells): 40.2 µM (active)
- CC50 [24]: > 20 µM (active)
